Measurements from patent US9464076B2, “Benzothiophene derivative” (Daiichi Sankyo Company, Limited, priority 2013, dated 2016).
Structures can show the parent of a compound that is named as a salt.

Legend:
Male C57BL/6 Cr mice = assay: Test on suppression of phencyclidine-induced hyperlocomotion in mice; assay type: in vivo, mouse; details: locomotor activity, test compound 10 mg/kg oral, phencyclidine 5 mg/kg s.c. approx. 1 hour later, measured for 1 hour; for inhibition in vivo at 10 mg/kg: Mus musculus, po, 1 h
Method: Male C57BL/6 Cr mice (Japan SLC, Inc.) (8 weeks old) were used in the experiment. A test compound was suspended at 1 mg/mL in a 0.5% hydroxypropylcellulose solution to prepare a suspension for administration. The suspension of the test compound or a solvent (0.5% hydroxypropylcellulose solution) was orally administered at a dose of 10 mL/kg to each mouse. After the administration, the mouse was immediately placed in a locomotor activity measurement apparatus (Muromachi Kikai Co., Ltd., locomotor activity measurement system SUPERMEX). Approximately 1 hour later, phencyclidine (5 mg/10 mL/kg) or a solvent (10 mL/kg saline) was subcutaneously administered to the mouse. The locomotor activity was measured from immediately after the subcutaneous administration to 1 hour later.
Percent inhibition exceeding 100 means that when the activity of the phencyclidine administration control group was defined as 100, the activity of the group given a test compound was lower than that of the solvent administration control group.

PDE10A = PDE10A (Homo sapiens (Human), UniProt Q9Y233); assay: Measurement of PDE10A inhibitory activity-2 (PDE10A fraction prepared from MOLT-4 cells); assay type: biochemical; details: PDE10A fraction from MOLT-4 cells (peak around 250 mM NaCl)
Sequence of PDE10A (Q9Y233 whole entry): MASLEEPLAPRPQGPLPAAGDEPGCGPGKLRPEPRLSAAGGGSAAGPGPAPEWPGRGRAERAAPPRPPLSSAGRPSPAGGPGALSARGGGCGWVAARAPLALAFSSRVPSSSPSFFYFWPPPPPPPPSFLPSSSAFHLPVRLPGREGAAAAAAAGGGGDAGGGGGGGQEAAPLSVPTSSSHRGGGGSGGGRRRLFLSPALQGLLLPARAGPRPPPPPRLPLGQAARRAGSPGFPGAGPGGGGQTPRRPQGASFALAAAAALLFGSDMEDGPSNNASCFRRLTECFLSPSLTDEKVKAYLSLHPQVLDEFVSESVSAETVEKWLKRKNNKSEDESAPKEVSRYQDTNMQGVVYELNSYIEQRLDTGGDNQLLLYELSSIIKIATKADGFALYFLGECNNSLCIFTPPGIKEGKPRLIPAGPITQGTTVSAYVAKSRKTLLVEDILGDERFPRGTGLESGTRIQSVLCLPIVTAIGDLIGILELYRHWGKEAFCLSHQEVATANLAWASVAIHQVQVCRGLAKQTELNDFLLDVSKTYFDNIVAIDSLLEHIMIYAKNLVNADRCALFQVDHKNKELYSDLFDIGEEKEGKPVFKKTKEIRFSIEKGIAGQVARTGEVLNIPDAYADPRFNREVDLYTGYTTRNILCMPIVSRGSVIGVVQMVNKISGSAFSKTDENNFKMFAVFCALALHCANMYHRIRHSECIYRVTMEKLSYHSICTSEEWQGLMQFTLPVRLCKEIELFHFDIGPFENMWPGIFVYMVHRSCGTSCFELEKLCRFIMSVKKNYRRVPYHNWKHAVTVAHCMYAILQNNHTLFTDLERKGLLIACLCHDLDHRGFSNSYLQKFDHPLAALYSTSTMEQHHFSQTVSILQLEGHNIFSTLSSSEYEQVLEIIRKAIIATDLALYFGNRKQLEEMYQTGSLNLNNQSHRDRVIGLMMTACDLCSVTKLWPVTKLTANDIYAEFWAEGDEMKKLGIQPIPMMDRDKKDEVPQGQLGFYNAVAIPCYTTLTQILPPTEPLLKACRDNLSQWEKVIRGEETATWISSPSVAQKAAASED
Method: A human acute lymphoblastic lymphoma T cell line MOLT-4 (which can be purchased under ATCC No. CRL-1582 from ATCC) was cultured in an RPMI1640 medium containing 10% fetal bovine serum to obtain 5×10^8 MOLT-4 cells. The cells were recovered by centrifugation and suspended in 10 ml of buffer solution A (25 mM Tris-HCl, 5 mM 2-mercaptoethanol, 2 mM benzamidine, 2 mM EDTA, and 0.1 mM 4-(2-aminoethyl)benzenesulfonyl hydrochloride, pH 7.5). The cells were homogenized using a Polytron homogenizer and centrifuged (4° C., 25,000 g, 10 minutes). Then, the supernatant was further ultracentrifuged (4° C., 100,000 g, 60 minutes). The obtained supernatant was filtered through a 0.2 μm filter to obtain a soluble fraction.
HiTrap Q HP column (5 ml×2, GE Healthcare Japan Corp.) equilibrated with buffer solution A was charged with the obtained soluble fraction. Phosphodiesterase was eluted with 300 ml of buffer solution A containing a linear gradient solution of 0 to 0.8 M NaCl to recover sixty 5-ml fractions. Each fraction was tested for cAMP-metabolizing phosphodiesterase activity.
On the other hand, total RNA was prepared from Jurkat cells, one type of human T cell, and similarly subjected to RT-PCR. […] Eur J Biochem. 1999, 266 (3), 1118-2 has reported that PDE10A from the rat striatum and testis is eluted as an active peak centered around 250 mM NaCl.
For these reasons, this fraction was used as a solution for the evaluation of PDE10A inhibitory activity. The obtained solution was used to calculate the inhibitory activity (IC50) of a test compound in the same way as in the aforementioned test.

IC50 (PDE10A) [nM]	SMILES	inhibition in vivo at 10 mg/kg (Male C57BL/6 Cr mice) [%]	% inhibition (Male C57BL/6 Cr mice) [%]
0.8	COCc1ccc(C(C)=O)c2sc(C(=O)Nc3cc(CN4CCN(C)CC4)c4ccccc4n3)c(C)c12 [Example 125, 7-Acetyl-4-(methoxymethyl)-3-methyl-N-(4-((4-methylpiperazin-1-yl)methyl)quinolin-2-yl)benzo[b]thiophene-2-carboxamide]	86	–
0.15	[2H]C([2H])(OC)c1ccc(C(C)=O)c2sc(C(=O)Nc3cc(C([2H])([2H])N4CC[C@@H](O)C4)c4ccccc4n3)c(C)c12 [Example 116, (R)-7-Acetyl-N-(4-((3-hydroxypyrrolidin-1-yl)(^2H2)methyl)quinolin-2-yl)-4-(methoxy(^2H2)methyl)-3-methylbenzo[b]thiophene-2-carboxamide]	180	–
0.35	COCc1ccc(C(C)=O)c2sc(C(=O)Nc3cc(CN4CCC(O)CC4)c4ccccc4n3)c(C)c12 [Example 36, 7-Acetyl-N-(4-((4-hydroxypiperidin-1-yl)methyl)quinolin-2-yl)-4-(methoxymethyl)-3-methylbenzo[b]thiophene-2-carboxamide]	69	–
–	COCc1ccc(C(C)=O)c2sc(C(=O)Nc3ccc4c(CO)cccc4n3)c(C)c12.Cl [Example 77, 7-Acetyl-N-(5-(hydroxymethyl)quinolin-2-yl)-4-(methoxymethyl)-3-methylbenzo[b]thiophene-2-carboxamide hydrochloride]	–	96
0.54	COCc1ccc(C(C)=O)c2sc(C(=O)Nc3ccc4c(COCCO)cccc4n3)c(C)c12 [Example 72, 7-Acetyl-N-(5-((2-hydroxyethoxy)methyl)quinolin-2-yl)-4-(methoxymethyl)-3-methylbenzo[b]thiophene-2-carboxamide hydrochloride]	83	–
0.49	COCc1ccc(C(C)=O)c2sc(C(=O)Nc3cc(CN4CC(O)C4)c4ccccc4n3)c(C)c12 [Example 47, 7-Acetyl-N-(4-((3-hydroxyazetidin-1-yl)methyl)quinolin-2-yl)-4-(methoxymethyl)-3-methylbenzo[b]thiophene-2-carboxamide dihydrochloride]	73	–
0.5	COCc1ccc(C(C)=O)c2sc(C(=O)Nc3cc(CN4CC[C@@H](F)C4)c4ccccc4n3)c(C)c12 [Example 45, (R)-7-Acetyl-N-(4-((3-fluoropyrrolidin-1-yl)methyl)quinolin-2-yl)-4-(methoxymethyl)-3-methylbenzo[b]thiophene-2-carboxamide]	97	–
1.2	COCc1ccc(C(C)=O)c2sc(C(=O)Nc3ccc4c(CN5CC(OC)C5)cccc4n3)c(C)c12 [Example 66, 7-Acetyl-N-(5-((3-methoxyazetidin-1-yl)methyl)quinolin-2-yl)-4-(methoxymethyl)-3-methylbenzo[b]thiophene-2-carboxamide]	91	–
0.11	COCc1ccc(C(C)=O)c2sc(C(=O)Nc3ccc4c(C(=O)N5CC(O)C5)cccc4n3)c(C)c12 [Example 101, 7-Acetyl-N-(5-((3-hydroxyazetidin-1-yl)carbonyl)quinolin-2-yl)-4-(methoxymethyl)-3-methylbenzo[b]thiophene-2-carboxamide]	35	–
0.61	[2H]C([2H])([2H])OCc1cccc2nc(NC(=O)c3sc4c(C(C)=O)ccc(COC)c4c3C)ccc12 [Example 117, 7-Acetyl-4-(methoxymethyl)-N-(5-((^2H3)methoxymethyl)quinolin-2-yl)-3-methylbenzo[b]thiophene-2-carboxamide]	57	–
1.1	COCc1ccc(C(C)=O)c2sc(C(=O)Nc3ccc4c(COC(=O)CN)cccc4n3)c(C)c12 [Example 85, (2-(7-Acetyl-4-(methoxymethyl)-3-methylbenzo[b]thiophene-2-carboxamido)quinolin-5-yl)methyl-2-aminoacetate]	85	–
–	[2H]C([2H])([2H])OCc1ccc(C(C)=O)c2sc(C(=O)Nc3ccc4c(CO)cccc4n3)c(C)c12 [Example 120, 7-Acetyl-N-(5-(hydroxymethyl)quinolin-2-yl)-4-((^2H3)methoxymethyl)-3-methylbenzo[b]thiophene-2-carboxamide]	52	–
0.054	COCc1ccc(C(C)=O)c2sc(C(=O)Nc3cc(N)c4ccccc4n3)c(C)c12 [Example 54, 7-Acetyl-N-(4-aminoquinolin-2-yl)-4-(methoxymethyl)-3-methylbenzo[b]thiophene-2-carboxamide]	68	–
2.1	COCc1ccc(C(C)=O)c2sc(C(=O)Nc3cc(CN4CCOCC4)c4ccccc4n3)c(C)c12 [Example 44, 7-Acetyl-4-(methoxymethyl)-3-methyl-N-(4-(morpholinomethyl)quinolin-2-yl)benzo[b]thiophene-2-carboxamide]	104	–
7.1	COCc1ccc(C(C)=O)c2sc(C(=O)Nc3ccc4c(COC(=O)[C@@H](N)C(C)C)cccc4n3)c(C)c12 [Example 84, (S)-(2-(7-Acetyl-4-(methoxymethyl)-3-methylbenzo[b]thiophene-2-carboxamido)quinolin-5-yl)methyl-2-amino-3-methylbutanoate]	92	–
–	COCc1ccc(C(C)=O)c2sc(C(=O)Nc3cc(N(C)C)c4ccccc4n3)c(C)c12 [Example 55, 7-Acetyl-N-(4-(dimethylamino)quinolin-2-yl)-4-(methoxymethyl)-3-methylbenzo[b]thiophene-2-carboxamide]	127	–
0.76	[2H]C([2H])([2H])OCc1ccc(C(C)=O)c2sc(C(=O)Nc3ccc4c(COC)cccc4n3)c(C)c12 [Example 118, 7-Acetyl-4-((^2H3)methoxymethyl)-N-(5-(methoxymethyl)quinolin-2-yl)-3-methylbenzo[b]thiophene-2-carboxamide]	77	–
–	COCc1ccc(C(C)=O)c2sc(C(=O)Nc3ccc4c(CN5CC[C@@H](F)C5)cccc4n3)c(C)c12 [Example 60, (R)-7-Acetyl-N-(5-((3-fluoropyrrolidin-1-yl)methyl)quinolin-2-yl)-4-(methoxymethyl)-3-methylbenzo[b]thiophene-2-carboxamide hydrochloride]	107	–
–	COCc1ccc(C(C)=O)c2sc(C(=O)Nc3ccc4c(C(=O)N5CCN(C)CC5)cccc4n3)c(C)c12 [Example 96, 7-Acetyl-4-(methoxymethyl)-3-methyl-N-(5-((4-methylpiperazin-1-yl)carbonyl)quinolin-2-yl)benzo[b]thiophene-2-carboxamide]	65	–
–	COCc1ccc(C(C)=O)c2sc(C(=O)Nc3ccc4ccccc4n3)c(C)c12 [Example 49, 7-Acetyl-4-(methoxymethyl)-3-methyl-N-(quinolin-2-yl)benzo[b]thiophene-2-carboxamide]	104	–
0.94	COCc1ccc(C(C)=O)c2sc(C(=O)Nc3cc(CN(C)CCO)c4ccccc4n3)c(C)c12 [Example 34, 7-Acetyl-N-(4-(((2-hydroxyethyl)(methyl)amino)methyl)quinolin-2-yl)-4-(methoxymethyl)-3-methylbenzo[b]thiophene-2-carboxamide dihydrochloride]	–	–
0.91	COCc1ccc(C(C)=O)c2sc(C(=O)Nc3ccc4c(C(C)=O)cccc4n3)c(C)c12 [Example 75, 7-Acetyl-N-(5-acetylquinolin-2-yl)-4-(methoxymethyl)-3-methylbenzo[b]thiophene-2-carboxamide]	–	–
0.47	Cc1c(C(=O)Nc2cc(C(C)(C)O)c3ccccc3n2)sc2c(C(=O)C(C)C)cccc12 [Example 18, N-(4-(2-Hydroxypropan-2-yl)quinolin-2-yl)-7-isobutyryl-3-methylbenzo[b]thiophene-2-carboxamide]	–	–
20	CCC(=O)c1ccc(C(C)=O)c2sc(C(=O)Nc3cc(C(C)(C)O)c4ccccc4n3)c(C)c12 [Example 10, 7-Acetyl-N-(4-(2-hydroxypropan-2-yl)quinolin-2-yl)-3-methyl-4-propionylbenzo[b]thiophene-2-carboxamide]	–	–
